Experimental findings from US9834542B2, “LXR modulators” (BRISTOL-MYERS SQUIBB COMPANY, priority 2013, dated 2017) are described below.

The test deals with T1, LXRβ (Homo sapiens, UniProt P55055).
T1 construct: Co-transfection expression plasmids, comprising full-length LXRα (pCMX-h LXRα[…] or LXRβ (pCMX-hLXRβ)); expressed in transfected cells; host or cells: CV-1 African Green Monkey Kidney Cells
T1 sequence (P55055 1-460): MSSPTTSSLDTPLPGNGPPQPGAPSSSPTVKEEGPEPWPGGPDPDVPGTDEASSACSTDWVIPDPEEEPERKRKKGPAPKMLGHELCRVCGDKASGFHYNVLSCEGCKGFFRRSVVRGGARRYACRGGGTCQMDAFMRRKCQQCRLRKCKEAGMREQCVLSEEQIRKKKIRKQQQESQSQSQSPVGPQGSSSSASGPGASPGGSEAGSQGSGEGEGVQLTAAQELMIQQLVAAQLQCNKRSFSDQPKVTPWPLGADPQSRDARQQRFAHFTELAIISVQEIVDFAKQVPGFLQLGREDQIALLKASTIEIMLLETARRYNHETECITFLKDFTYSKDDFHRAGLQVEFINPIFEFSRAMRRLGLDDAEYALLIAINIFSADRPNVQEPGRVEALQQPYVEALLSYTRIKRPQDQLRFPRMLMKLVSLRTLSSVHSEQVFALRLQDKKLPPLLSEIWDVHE
T1 sequence (P19793 1-462 partner): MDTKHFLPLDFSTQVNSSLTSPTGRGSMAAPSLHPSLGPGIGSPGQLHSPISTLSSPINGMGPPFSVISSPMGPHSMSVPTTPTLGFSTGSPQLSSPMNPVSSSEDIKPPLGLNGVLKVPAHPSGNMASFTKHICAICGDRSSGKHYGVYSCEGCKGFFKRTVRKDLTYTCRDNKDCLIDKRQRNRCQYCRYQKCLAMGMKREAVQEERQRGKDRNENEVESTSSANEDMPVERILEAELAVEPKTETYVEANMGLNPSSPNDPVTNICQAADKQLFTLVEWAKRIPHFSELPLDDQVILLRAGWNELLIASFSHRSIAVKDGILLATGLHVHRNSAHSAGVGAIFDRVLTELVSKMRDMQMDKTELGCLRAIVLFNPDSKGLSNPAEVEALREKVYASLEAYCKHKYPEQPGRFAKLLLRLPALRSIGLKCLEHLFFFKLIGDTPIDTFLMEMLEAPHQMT
Kind of test: Co-transfection assay (LXRE luciferase reporter), LXRβ. Format: cell-based. The conditions noted are these: for EC50: CV-1 cells transfected with pCMX-hLXRβ and LXREx1-Tk-Luciferase, 20 hours incubation; for Emax: LXRβ co-transfection, relative to high control 1-(2,4-difluorobenzyl)-2-oxo-6-(4-phenoxyphenyl)-4-(trifluoromethyl)-1,2-dihydropyridine-3-carbonitrile, read-out: % Efficacy. The method in brief:
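CV-1 cells transiently co-transfected with full-length human LXRβ expression plasmid, LXREx1-Tk-luciferase reporter and β-galactosidase control, then exposed to compound for 20 h at 37 °C. Luciferase luminescence read; EC50 from 11-point, ½-log dose–response fit, efficacy relative to high-control agonist maximum.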
Background: Reporter assays use an easily measured gene product as a stand-in for the process of interest.

Structures are written as SMILES.

Broadly, the EC50 is the concentration needed to bring the measured effect to its halfway point. `Cc1nc(-c2ccccc2C(F)(F)F)c(-c2cc(-c3cccc(S(C)(=O)=O)c3)ccc2-n2cc(C(F)(F)F)nc2C)o1` [Example 629, 2-methyl-5-(4-(2-methyl-4-(trifluoromethyl)-1H-imidazol-1-yl)-3′-(methylsulfonyl)-[1,1′-biphenyl]-3-yl)-4-(2-(trifluoromethyl)phenyl)oxazole]: the EC50 amounted to 303 nM and the Emax amounted to 31%.

For the molecule `Cc1nc(C(F)(F)F)cn1-c1ccc(-c2cccc(S(C)(=O)=O)c2)cc1-n1nncc1-c1ccc(CF)cc1` [Example 4, 5-[4-(fluoromethyl)phenyl]-1-{3′-(methylsulfonyl)-4-[2-methyl-4-(trifluoromethyl)-1H-imidazol-1-yl]biphenyl-3-yl}-1H-1,2,3-triazole], the EC50 is 559 nM and the Emax came out at 89%.

As for `Cc1nc(-c2cc(-c3cccc(S(C)(=O)=O)c3)ccc2-n2cc(C(F)(F)F)nc2C)c(-c2ccc(Cl)c(Cl)c2)o1` [Example 508, 5-(3,4-dichlorophenyl)-2-methyl-4-(4-(2-methyl-4-(trifluoromethyl)-1H-imidazol-1-yl)-3′-(methylsulfonyl)biphenyl-3-yl)oxazole], the EC50 was determined as 82 nM and the Emax is 68%.

`CS(=O)(=O)c1cccc(-c2ccc(-n3cc(C(F)(F)F)nc3C(F)F)c(-n3nncc3-c3ccc(Cl)cc3)c2)c1` [Example 225, 5-(4-chlorophenyl)-1-(4-(2-(difluoromethyl)-4-(trifluoromethyl)-1H-imidazol-1-yl)-3′-(methylsulfonyl)-[1,1′-biphenyl]-3-yl)-1H-1,2,3-triazole]: a half-maximal effect (EC50) was put at 1100 nM and the Emax is 91%.

Take `COCS(=O)(=O)c1cccc(-c2ccc(-n3cc(C(F)(F)F)nc3C)c(-c3nc(C)oc3-c3ccc(OC(F)(F)F)cc3)c2)c1` [Example 539, 4-(3′-((methoxymethyl)sulfonyl)-4-(2-methyl-4-(trifluoromethyl)-1H-imidazol-1-yl)-[1,1′-biphenyl]-3-yl)-2-methyl-5-(4-(trifluoromethoxy)phenyl)oxazole]: the 50% effective concentration (EC50) turned out to be 206 nM and the Emax was 81%.

For the molecule `COCCc1nc(-c2cc(-c3cccc(S(C)(=O)=O)c3)ccc2-n2cc(C(F)(F)F)nc2C)c(-c2ccc(Cl)cc2Cl)o1` [Example 553, 5-(2,4-dichlorophenyl)-2-(2-methoxyethyl)-4-(4-(2-methyl-4-(trifluoromethyl)-1H-imidazol-1-yl)-3′-(methylsulfonyl)-[1,1′-biphenyl]-3-yl)oxazole], it took 156 nM to reach a half-maximal effect (EC50) and the Emax is 60%.

For `COc1ncc(-c2oc(C)nc2-c2cc(-c3cccc(S(C)(=O)=O)c3)ccc2-n2cc(C(F)(F)F)nc2C)cc1F` [Example 439, 5-(5-fluoro-6-methoxypyridin-3-yl)-2-methyl-4-(4-(2-methyl-4-(trifluoromethyl)-1H-imidazol-1-yl)-3′-(methylsulfonyl)biphenyl-3-yl)oxazole], the EC50 turned out to be 410 nM and the Emax worked out at 80%.

With `Cc1nc(-c2cc(-c3cccc(S(C)(=O)=O)c3)ccc2-n2cc(C(F)(F)F)nc2C)c(-c2ccc(N(C)C)cc2)o1` [Example 500, N,N-dimethyl-4-(2-methyl-4-(4-(2-methyl-4-(trifluoromethyl)-1H-imidazol-1-yl)-3′-(methylsulfonyl)biphenyl-3-yl)oxazol-5-yl)aniline], the EC50 is 85 nM and the Emax turned out to be 96%.

`CCCCOc1ccc(-c2cnnn2-c2cc(-c3cccc(S(C)(=O)=O)c3)ccc2-n2cc(C(F)(F)F)nc2C)cc1` [Example 30, 5-[4-(butyloxy)phenyl]-1-{3′-(methylsulfonyl)-4-[2-methyl-4-(trifluoromethyl)-1H-imidazol-1-yl]biphenyl-3-yl}-1H-1,2,3-triazole]: the EC50 was 605 nM and the Emax stood at 85%.

Consider `Cc1nc(C(F)F)cn1-c1ccc(-c2cc(Cl)c(CO)c(S(C)(=O)=O)c2)cc1-n1nncc1-c1ccc(OC(F)(F)F)cc1` [Example 158, {3-chloro-4′-[4-(difluoromethyl)-2-methyl-1H-imidazol-1-yl]-5-(methylsulfonyl)-3′-(5-{4-[(trifluoromethyl)oxy]phenyl}-1H-1,2,3-triazol-1-yl)biphenyl-4-yl}methanol], for which a half-maximal effect (EC50) was put at 1410 nM and the Emax turned out to be 88%.

Turning to `Cc1nc(-c2cc(-c3cccc(S(C)(=O)=O)c3)ccc2-n2cc(C(F)(F)F)nc2C)c(-c2ccc(OC3CCCC3)nc2)o1` [Example 410, 5-(6-(cyclopentyloxy)pyridin-3-yl)-2-methyl-4-(4-(2-methyl-4-(trifluoromethyl)-1H-imidazol-1-yl)-3′-(methylsulfonyl)biphenyl-3-yl)oxazole], the EC50 worked out at 204 nM and the Emax worked out at 49%.

In the case of `Cc1nc(-c2cc(-c3cc(F)c(CO)c(S(C)(=O)=O)c3)ccc2-n2cc(C(F)(F)F)nc2C)c(-c2ccc3c(c2)CCC3)o1` [Example 475, (3′-(5-(2,3-dihydro-1H-inden-5-yl)-2-methyloxazol-4-yl)-3-fluoro-4′-(2-methyl-4-(trifluoromethyl)-1H-imidazol-1-yl)-5-(methylsulfonyl)biphenyl-4-yl)methanol], the EC50 is 69 nM and the Emax stood at 56%.

On to `Cc1nc(C(F)(F)F)cn1-c1ccc(-c2cc(F)cc(S(C)(=O)=O)c2)cc1-n1nncc1-c1ccc(OC(F)(F)F)cc1` [Example 91, 1-{3′-fluoro-5′-(methylsulfonyl)-4-[2-methyl-4-(trifluoromethyl)-1H-imidazol-1-yl]biphenyl-3-yl}-5-{4-[(trifluoromethyl)oxy]phenyl}-1H-1,2,3-triazole], for which the EC50 is 484 nM and the Emax came out at 109%.

As for `Cc1nc(C(F)(F)F)cn1-c1ccc(-c2cccc(S(C)(=O)=O)c2)cc1-n1nncc1C(=O)c1cccc(C(F)(F)F)c1` [Example 137, (1-{3′-(methylsulfonyl)-4-[2-methyl-4-(trifluoromethyl)-1H-imidazol-1-yl]biphenyl-3-yl}-1H-1,2,3-triazol-5-yl)[3-(trifluoromethyl)phenyl]meth-anone], the EC50 stood at 1090 nM and the Emax was found to be 63%.

For the molecule `Cc1nc(C(F)(F)F)cn1-c1ccc(-c2cccc(S(C)(=O)=O)c2)cc1-n1nncc1C(=O)c1ccc(C(F)(F)F)cc1` [Example 138, (1-{3′-(methylsulfonyl)-4-[2-methyl-4-(trifluoromethyl)-1H-imidazol-1-yl]biphenyl-3-yl}-1H-1,2,3-triazol-5-yl)[4-(trifluoromethyl)phenyl]meth-anone], the response was half-maximal at 1290 nM (EC50) and the Emax is 99%.

In the case of `CCS(=O)(=O)c1cccc(-c2ccc(-n3cc(C(F)(F)F)nc3C)c(-n3nncc3-c3ccc(OC(F)(F)F)cc3)c2)c1` [Example 215, 1-(3′-(ethylsulfonyl)-4-(2-methyl-4-(trifluoromethyl)-1H-imidazol-1-yl)-[1,1-biphenyl]-3-yl)-5-(4-(trifluoromethoxy)phenyl)-1H-1,2,3-triazole], a half-maximal response (EC50) required 334 nM and the Emax came out at 86%.

For the molecule `CS(=O)(=O)c1cc(-c2ccc(-n3cc(C(F)(F)F)nc3Cl)c(-n3nncc3-c3ccc(Cl)cc3Cl)c2)cc(F)c1CO` [Example 145, {4′-[2-chloro-4-(trifluoromethyl)-1H-imidazol-1-yl]-3′-[5-(2,4-dichlorophenyl)-1H-1,2,3-triazol-1-yl]-3-fluoro-5-(methylsulfonyl)biphenyl-4-yl}methanol], the midpoint of the response, the EC50, lay at 233 nM and the Emax came out at 110%.

With `Cc1nc(C(F)(F)F)cn1-c1ccc(-c2ccc(CO)c(S(C)(=O)=O)c2)cc1-c1ccnn1-c1ccc(Cl)nc1` [Example 298, (3′-(1-(6-chloropyridin-3-yl)-1H-pyrazol-5-yl)-4′-(2-methyl-4-(trifluoromethyl)-1H-imidazol-1-yl)-3-(methylsulfonyl)biphenyl-4-yl)methanol], the EC50 turned out to be 317 nM and the Emax came to 71%.

For `Cc1nc(C(F)(F)F)cn1-c1ccc(-c2cccc(C(C)(C)C(N)=O)c2)cc1-n1nncc1C(=O)c1ccc(Cl)cc1` [Example 139, 2-(3′-{5-[(4-chlorophenyl)carbonyl]-1H-1,2,3-triazol-1-yl}-4′-[2-methyl-4-(trifluoromethyl)-1H-imidazol-1-yl]biphenyl-3-yl)-2-methylpropanamide], the EC50 came to 1490 nM and the Emax was 71%.
